Results from EP4523686A1, “A SIGMA-1 RECEPTOR POSITIVE MODULATOR FOR ITS USE IN THE PREVENTION AND THE TREATMENT OF A PATHOLOGY” (priority 2023, dated 2025).

How the values were obtained:
Male Swiss mice = experiment: Open field activity test (anxiolytic effect) and observation of animals; assay type: in vivo
Method: Drug administration: Route: intraperitoneal (IP), Method: by injection. The drug was administered under a volume calculated according to the individual body weight of each mouse (5 ml/kg), Frequency: once before the behavioral procedure, Treatment length: once, Timing: 30 minutes before behavioral procedure.
Health of animals was checked daily: general aspect of animals, activity, acute or delayed mortality. Weight was monitored the day of experiment.
The day of the test, animals were tested for general locomotor activity in the open field (OF) activity test for 10 min. The open field is made of opaque white plexiglass. The arena is composed of a large square box (50cm × 50cm × 50cm). Animal movements were followed by an overhead camera placed above the apparatus. Each mouse was placed in the center of the arena and allowed to move freely through the arena during its session. The locomotor activity was assessed by counting the total distance traveled measured in centimeters (cm) for the whole session time. The time spent in center area, and the number of defecations were also assessed.

[1] = Summary of the in vivo tests (active dose range); settings: dizocilpine-induced amnesia and Aβ25-35 tests
Description: A characteristic of SIG-1R positive modulators, likely due to the chaperone nature of SIG-1R, is to behave in vivo as agonists (Vavers et al., 2019).

Wfs1^ΔExon8 mice = experiment: Active avoidance in the rectangular water-maze, Wolfram syndrome mouse model; assay type: in vivo
Method: (§1) Non-spatial long-term memory was also examined using the successive training, place-learning procedure in the rectangular water-maze (Maurice et al., 1995, 2018). The apparatus is a black Plexiglas rectangular pool (30 × 60 × 36 cm high), filled with water at a high of 25 cm. The water temperature was maintained at 23 ± 1°C. A transparent Plexiglas platform (5 × 8.5 × 0.5 cm) was fixed in the southeast corner of the pool, 1 cm below the water surface. On acquisition days 1 and 2, each mouse was placed at the middle of the west side of the pool, facing the wall, and the latency to find the platform was recorded up to 60 s. The mouse was allowed to remain on it for 20 s, and then removed from the pool into its home cage. […] Each animal was run in this manner for a total of 5 trials on day 1, and 3 trials on day 2. […] A short-term memory (STM) index was defined as the mean difference in swimming duration between trial n and trial n-1 for trials 2 to 5 and 7 to 8. The STM index was analysed vs. zero level (= no improvement). On day 4, 48 h after the last training session, animals were tested for retention. The platform was removed. Each mouse was again placed at the starting point and observed for 60 s. The latency to reach the original platform location and the time spent on the platform location was recorded.

[2] = system: Aβ25-35-induced learning impairments in mice; experiment: Active avoidance in the rectangular water-maze, Aβ25-35 model of Alzheimer's disease; assay type: in vivo
Method: Amyloid-β[25-35] peptide (Aβ25-35) was from Eurogentec (Angers, France). It was solubilized in distilled water at 3 mg/ml and stored at -20°C until use. Before injection, the peptide was incubated at 37°C for 4 days, allowing oligomerization. Control injection was performed with vehicle solution (distilled water), and intracerebroventricularly (ICV) injections were done as described previously (Maurice et al., 1996, 2019).
as §1
SIG-1R acting drugs are potent neuroprotective drugs in several neurodegenerative disease indications. Moreover, Blarcamesine, the drug presently tested in a clinical phase 3 assay (NCT04314934) was identified in the pharmacological model of AD induced in mice by ICV administration of oligomerized Aβ25-35 peptide (Villard et al., 2011). […]

[3] = system: wfs1ab^KO zebrafish larvae; experiment: Visual motor response in zebrafish larvae (hyperlocomotor response); assay type: in vivo
Method: The visual motor response assay quantifies the locomotor activity of the zebrafish larvae to light intensity changes. The protocol was previously described (Crouzier et al., 2021a, 2021b, 2022). In brief, 5 dpf larvae were transfered in a 96-well plate (#7701-1651, Whatman) with 300 µl of fish water and placed in a Zebrabox® (ViewPoint, Lissieu, France). The locomotor behavior was monitored using an automated videotracking device equipped with an infra-red (IR) camera under IR light illumination (Zebralab®, Viewpoint). The light protocol was as follow: 30 min of acclimatization in the dark (0% light intensity), then 2 cycles of 10-min duration light ON and 10-min duration light OFF periods. The brightness changes were immediate (<< 1 s). The activity was measured in mm/s. For each larva, the mobility were calculated as mean (OFF-ON) values to account for inter- and intra-group variability in locomotor response.
A phenotypic test described by Crouzier et al. (2022) was performed. […] Compounds were added in the fish water of larvae at 4 dpf for 24 h, and screening parameters included: (1) the lack of toxicity (including grossly observable morphological alterations) after 24 h exposure; (2) the locomotor increase in wfs1ab^KO larvae, expressed as % of V-treated wfs1ab^KO response; (3) the eventual alteration of locomotion in wfs1ab^WT larvae, expressed as % of V-treated wfs1ab^WT response; and (4) the Protection index (PI) calculated as detailed in the Methods section.

[4] = system: Dizocilpine-induced learning impairments in mice; experiment: Step-through passive avoidance, Dizocilpine-induced learning impairments; assay type: in vivo
Description: The apparatus is a two-compartments (15 × 20 × 15 cm high) box with one illuminated with white polyvinylchloride walls and the other darkened with black polyvinylchloride walls and a grid floor. A guillotine door separates each compartment. A 60 W lamp positioned 40 cm above the apparatus lights up the white compartment during the experiment. Scrambled foot shocks (0.3 mA for 3 s) could be delivered to the grid floor using a shock generator scrambler (Lafayette Instruments, Lafayette, USA). The guillotine door was initially closed during the training session. Each mouse was placed into the white compartment. After 5 s, the door was raised. When the mouse entered the darkened compartment and placed all its paws on the grid floor, the door is closed and the foot shocks delivered for 3 s. The step-through latency (STL-Tg), that is, the latency spent to enter the darkened compartment, and the number of vocalizations were recorded. The retention test was carried out 24 h after training. Each mouse was placed again into the white compartment. After 5 s, the door was raised. The step-through latency (STL-R) was recorded up to 300 s (Meunier et al., 2006, 2013; Villard et al., 2009, 2011). An exclusion criteria was STL-Tg and STL-R < 10 s. Animals showing these readouts are excluded from the calculations. Attrition is routinely < 5% in this test.

[5] = probe test without platform, no drug injection

**Q.** For `COc1ccc(C(=O)OC2CC3CCC(C2)N3C)cc1OC` (centres unmarked) [Convolamine, (8-methyl-8-azabicyclo[3.2.1]octan-3-yl) 3,4-dimethoxybenzoate], which “percentage of locomotion in center of the arena (in words)” value (Male Swiss mice; IP 30 minutes before the test) is on record?
**A.** Its value is “increase”.

**Q.** And the “time spent in the center of the arena (in words)” value (Male Swiss mice; IP 30 minutes before the test, compared to the vehicle-treated group)?
**A.** The value was “significant and bell-shaped increase”.

**Q.** What about the “mortality and adverse effect (in words)” value (Male Swiss mice; single IP injection, daily health check) of the same compound?
**A.** The value was “No mortality nor adverse effect”.

**Q.** What about the active dose [1] of the same compound?
**A.** The active dose was 0.3 to 3 mg/kg.

**Q.** And the “mild deficit of STM index (in words)” value (Wfs1^ΔExon8 mice; IP 20 min before training sessions)?
**A.** Its value is “not observed”.

**Q.** What about the “latency to reach the platform location in the probe test (in words)” value (Wfs1^ΔExon8 mice; [5]) of the same compound?
**A.** Its value is “attenuated these differences”.

**Q.** And the “number of platform location crossings in the probe test (in words)” value (Wfs1^ΔExon8 mice; [5])?
**A.** The value was “attenuated these differences”.

**Q.** And the “STM (short-term memory index) in Aβ25-35-treated mice (in words)” value ([2]; at 1 mg/kg)?
**A.** Its value is “significantly increased”.

**Q.** And the “Aβ25-35-induced decrease in number of platform location crossings (in words)” value ([2]; at 1 mg/kg IP)?
**A.** Its value is “significantly attenuated”.

**Q.** And the “Aβ25-35-induced increase in latency in the retention session (in words)” value ([2]; at 1 mg/kg IP)?
**A.** Its value is “significantly attenuated”.

**Q.** And the “hyperlocomotor response of wfs1ab^KO zebrafish larvae (in words)” value ([3]; 0.3-3 µM concentration-range)?
**A.** Its value is “dose-dependently abolished”.

**Q.** And the “Protection index (PI)” value ([3]; 5 dpf larvae, 24 h exposure, 3 µM)?
**A.** Its value is 1.0.

**Q.** And the “hyperlocomotor response of wfs1ab^KO zebrafish (in words)” value ([3]; at 3 µM in fish water)?
**A.** Its value is “completely prevented”.

**Q.** And the “effect of convolamine on hyperlocomotor response under co-treatment with NE-100 (in words)” value ([3]; co-treatment with NE-100 at 3 µM)?
**A.** Its value is “attenuated”.

**Q.** What about the “convolamine effect on step-through latency under NE-100 co-treatment (in words)” value ([4]; Convolamine 1 mg/Kg IP with NE-100 1 mg/Kg) of the same compound?
**A.** The value was “blocked”.

**Q.** And the “Dizocilpine-induced decrease of step-through latency (in words)” value ([4]; at 1 mg/kg IP)?
**A.** Its value is “attenuated significantly”.

**Q.** What about the “Dizocilpine-induced increase of escape latency (in words)” value ([4]; at 0.3-3 mg/kg IP) of the same compound?
**A.** Its value is “attenuated significantly”.
